# From article PMC6836573, “Mitochondria-targeting fluorescent molecules for high efficiency cancer growth inhibition and imaging” (Chemical Science, 2019)
# Assays:
# [1] = tested on: subcutaneous HCC827 tumor; experiment: In vivo and ex vivo fluorescence imaging of HCC827 tumor-bearing mice; set-up: species or system nude mice
# Experimental: HCC827 cells suspended in 150 µL of PBS were inoculated subcutaneously in the right shoulder […]
# When the tumors reached ~3 mm in diameter, the tumor-bearing mice were administered i.v. with 5BMF (dissolved in 150 µL PBS, with 2 µL DMSO) at 15 mg/Kg on days 1, 3, 5, 7, 9, 11, 13, 15, 17, 19, 21. Correspondingly, untreated tumor-bearing mice serving as controls were administered i.v. with 150 µL 1× PBS pH 7.4 (with 2 µL DMSO) on the same days as the treated mice. Ten mice were used for each group. Length and width of the elliptical tumors were measured by Vernier caliper after every intravenous injection. Modified ellipsoid formula ½ (Length × Width2) was used to calculate the tumor size. The tumor growth was calculated with the ratio of final volume (FV) minus initial volume (IV) to initial volume (IV).
# In vivo fluorescent imaging was taken 40 minutes and 2 hours after the injection of 5BMF 15 mg/kg. IVIS spectrum instrument was used. The excitation wavelength was set at 450 nm.
# Collection wavelength was set at 550 nm, using a 3s acquisition time. 4 mice for each group were used. Mice were sacrificed and the organs were harvest after each set of in vivo imaging.
# Fluorescent images of the organs were taken under the same settings.
# The tumor tissues and some important organs such as liver, kidney, lung, heart were isolated. After frozen, the specimens sectioned at 5-8 µm and processed for a standard hematoxylin-eosin (H&E) staining. Slides were viewed and photographed with the Nanozoomer Digital Pathology Image […]
# The body weights of mice are presented as means ± standard deviation (SD) of n independent measurements. The tumor volumes are presented as means ± standard error of mean (SEM) of n independent measurements. Statistical analysis was performed using a Student’s t-test or Mann-Whitney U test. Statistical significance was assigned for P values <0.05.
# Detail F16s Synthesis information
# [2] = Relative fluorescence quantum yield; format: physicochemical; conditions: EtOH, relative to rhodamine 6G, excited at 425 nm
# Experimental: Quantum yield. The fluorescence quantum yields of F16s were determined according to the […]
# Where Φ is the quantum yield, F is the integrated area under the corrected emission spectrum, and A is the absorbance at the excitation wavelength; the subscripts x and s refer to F16s and the standard, respectively. Rhodamine 6G (ΦF = 95%) in ethanol was used as the standard. All F16s and Rhodamine 6G were dissolved in ethanol in 5 different concentrations with the absorbance lower than 0.1 at 425nm. The corresponding 5 different fluorescences of F16s and Rhodamine 6G were excited at 425 nm and the emission spectra from 450 nm to 650 nm were obtained for the following integrated area measurement. All data were analyzed using Origin Pro 9.0 software (OriginLab, Northampton, Massachusetts, USA) to get the F16s final quantum yield. […]
# H1944 NSCLC cell line = experiment: Cytotoxicity assay, H1944; format: cell-based; conditions: Homo sapiens, NCI-H1944; H1944 cells
# Experimental: Cell culture, imaging, and cytotoxicity assay
# RPMI-1640 medium. NIH/3T3 was cultured in DMEM medium. A549 was cultured in F-12K medium. T24 were cultured in McCoy's 5A medium. All culture mediums were supplemented with 10% fetal bovine serum. The cells were incubated at 37 °C in an atmosphere containing 5% CO 2. […]
# Cytotoxicity assay. All test cell lines were incubated in 96-well plates overnight at a density of 3000 cells/well. The culture medium was replaced with 200 μL of culture medium, into which the testing compound was dispersed at various concentrations (1.95 - 500 μM). After incubating for 3 days, the viable cell numbers were checked and directly counted under microscopy (10X). A minimum of 1mm×1mm area was counted from each of at least three widely separated regions of cell culture. The cell proliferation rate was calculated by the following formula: cell proliferation rate (%) = (average cell number of sample wells / average cell number of control wells) ×100%.
# The intact culture medium was evaluated as a control. […]
# [3] = pH stability (integrated fluorescence intensity); format: physicochemical; conditions: pH 3.0–10.0 buffers, 24 h, 10 µM
# Experimental: with 10 µM concentration). pH 3.0~7.0 buffers are sodium hydrogen phosphate and trisodium buffer; pH 7.4~10.0 buffers are phosphate buffered saline. 5BMF was put into different pH buffer with the concentration of 10 µM. 5BMF solutions were taking out at 1, 2, 3, 4, 5, 6, 7, 8, 16, 24 h time point. And their integrated fluorescent intensity (from 450 nm to 650 nm) were measured (excited at 425 nm). All data were analyzed using Origin Pro 9.0 software (OriginLab, Northampton, Massachusetts, USA).
# (1 picture or pasted object on this page, not shown here)
compound,measurement,setting,value
Cc1cc(Br)cc2c(/C=C/c3cc[n+](C)cc3)c[nH]c12 [5BMF],"accumulation in tumor, kidney, bone, stomach, bowel, pancreas and skin",[1]; ex vivo imaging at 40 min and 2 h PI,"accumulated more 5BMF compared with the liver, spleen, heart, lung, and brain"
same,tumor/lung ratio,"[1]; ex vivo imaging, 2 h PI, 15 mg/kg",~7
same,tumor to background ratio,"[1]; in vivo fluorescence, 2 h post IV injection, 15 mg/kg",~2
same,Quantum Yield,[2],19.7%
same,Quantum Yield,[2]; listed as 3,around 20%
same,IC50,H1944 NSCLC cell line,261 nM
same,decay in buffers of different pH,[3],less than 20%
